{"source": "patent US11420966B2", "about": "(ACLARIS THERAPEUTICS, INC., priority 2019, dated 2022)", "key": {"JAK3 (a.a. 781-1124)": {"target": "JAK3 (a.a. 781-1124) (Homo sapiens (Human), UniProt P52333)", "sequence (P52333 781-1124)": "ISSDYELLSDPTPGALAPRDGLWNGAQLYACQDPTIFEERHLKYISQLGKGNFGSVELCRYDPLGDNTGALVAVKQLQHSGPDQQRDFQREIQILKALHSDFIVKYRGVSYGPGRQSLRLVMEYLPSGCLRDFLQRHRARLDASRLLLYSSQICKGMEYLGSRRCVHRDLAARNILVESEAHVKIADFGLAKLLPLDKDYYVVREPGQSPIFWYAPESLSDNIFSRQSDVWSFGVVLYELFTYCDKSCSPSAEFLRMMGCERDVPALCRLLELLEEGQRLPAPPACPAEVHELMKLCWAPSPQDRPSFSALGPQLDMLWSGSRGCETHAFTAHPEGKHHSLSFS", "experiment": "JAK3 enzyme activity assay (SRCtide phosphorylation, Caliper)", "format": "biochemical", "conditions": "1 uM ATP; read-out: JAK3 Inhibition IC50"}, "GI Exposure PK in Mice": {"experiment": "GI Exposure PK in Mice", "format": "in vivo", "conditions": "mouse, male BalbC mice, oral dose of 5 mg/kg", "procedure": "The test compound was wetted with ˜0.025% of Tween-20 and triturated in a mortar and pestle, then slowly 0.5% of methyl cellulose was added to make up the final volume to 7.25 mL. The BalbC test animals were subjected to anesthesia induced with a mixture of 5% isoflurane and 0.8-1.5 L/min 02 gas flow. The formulated test compound was then dosed via oral gavage. At various time points (0.5, 1, 2, 4, 6 and 8 h) blood samples (˜100 μL) were collected from portal vein (pre-hepatic) followed by cardiac puncture (circulating) into tubes containing 2% w/v aqueous K2 EDTA solution as per time points. Post blood sampling, the gastro intestine (GI) tissues were collected from the mice at the same time points. The GI tissue was dissected into different parts as duodenum, jejunum, ileum and colon. The separated tissues were washed by flushing with PBS via oral gavage needle to remove GI content. Post collection all the tissues were blotted, weighed and homogenized with PBS buffer (pH 7.4). The blood samples were immediately placed on ice and centrifuged within 30 min at 4° C. for 5 min at 8,000 rpm to obtain plasma. Plasma was transferred by pipettes to pre-labelled centrifuge tubes and immediately transferred to −80° C. until bioanalysis. Tissue samples were placed in pre-labelled container and all samples were kept in −80° C. until homogenized. The homogenate was stored immediately in −80° C. until bioanalysis was conducted. Study samples were thawed to room temperature and 50 μL of sample was aliquoted into pre-labeled vials. To these was added 400 μL of 100% acetonitrile containing an IS (100 ng/mL; warfarin, tolbutamide and loperamide). The vials were mixed well, vortexed for 5 min, followed by centrifugation for 5 min at 14000 rpm at 4° C. The supernatant was separated and same was injected on LC-MS/MS. Plasma and GI tissue levels of test compound were determined by LC-MS analysis using a standard curve in the text matrix. Individual concentration-time data were analyzed using Phoenix WinNonlin (Version 8.1) by the non-compartmental analysis (NCA) method."}, "[1]": {"conditions": "portal vein plasma (pre-hepatic), Portal plasma"}}}
{"molecule": "CNC(=O)c1coc(-c2cnc3[nH]ccc3c2N[C@@H]2C[C@H](C)CN(C(=O)CC#N)C2)n1", "note": "[Example 31, 2-(4-(((3R,5S)-1-(2-cyanoacetyl)-5-methylpiperidin-3-yl)amino)-1H-pyrrolo[2,3-b]pyridin-5-yl)-N-methyloxazole-4-carboxamide]", "values": [{"measurement": "IC50", "setting": "JAK3 (a.a. 781-1124)", "result": "≤ 10", "unit": "nM"}, {"measurement": "Tmax", "setting": "GI Exposure PK in Mice; circulating plasma (cardiac puncture), Circulating plasma", "result": 4, "unit": "h"}, {"measurement": "Cmax", "setting": "GI Exposure PK in Mice; circulating plasma (cardiac puncture), Circulating plasma, two of three subjects, third BLQ", "result": 9.2, "unit": "ng/mL"}, {"measurement": "AUC", "setting": "GI Exposure PK in Mice; [1]", "result": 17.2, "unit": "ng·h/mL"}, {"measurement": "Cmax", "setting": "GI Exposure PK in Mice; [1]", "result": 11.3, "unit": "ng/mL"}, {"measurement": "Tmax", "setting": "GI Exposure PK in Mice; [1]", "result": 0.5, "unit": "h"}, {"measurement": "AUC", "setting": "GI Exposure PK in Mice; Colon", "result": 6820, "unit": "ng·h/mL"}, {"measurement": "Cmax", "setting": "GI Exposure PK in Mice; Colon", "result": 1290, "unit": "ng/g"}, {"measurement": "Tmax", "setting": "GI Exposure PK in Mice; Colon", "result": 4, "unit": "h"}, {"measurement": "AUC", "setting": "GI Exposure PK in Mice; Duodenum", "result": 4660, "unit": "ng·h/mL"}, {"measurement": "Cmax", "setting": "GI Exposure PK in Mice; Duodenum", "result": 2880, "unit": "ng/g"}, {"measurement": "Tmax", "setting": "GI Exposure PK in Mice; Duodenum", "result": 0.5, "unit": "h"}, {"measurement": "AUC", "setting": "GI Exposure PK in Mice; Ileum", "result": 82500, "unit": "ng·h/mL"}, {"measurement": "Cmax", "setting": "GI Exposure PK in Mice; Ileum", "result": 43800, "unit": "ng/g"}, {"measurement": "Tmax", "setting": "GI Exposure PK in Mice; Ileum", "result": 2, "unit": "h"}, {"measurement": "AUC", "setting": "GI Exposure PK in Mice; Jejunum", "result": 57400, "unit": "ng·h/mL"}, {"measurement": "Cmax", "setting": "GI Exposure PK in Mice; Jejunum", "result": 37000, "unit": "ng/g"}, {"measurement": "Tmax", "setting": "GI Exposure PK in Mice; Jejunum", "result": 0.5, "unit": "h"}]}
